The source of these data is patent US20240156795A1, “METHODS AND COMPOSITIONS FOR THE TREATMENT OF DRUG RESISTANT TOPICAL INFECTIONS” (Lankenau Institute for Medical Research, priority 2020, published 2024).

“And” between values parts separate entries of the source, which are not always exact repeats. Identical values can stand only once.

The IC50 is the concentration that gives 50% inhibition. As usually defined, the EC50 is the concentration giving half of the maximal effect.

For data set [1] the following is noted: i.v. infusion of >50% solutions, cardiac surgery trial (Bennett-Guerrero et al., 2009); cited from earlier work.
The subject of a further data set is onychomycosis. The settings on record: topical treatment of toenail fungus; cited from earlier work.
Another data set deals with T1, IDO1 (Homo sapiens, UniProt P14902).
T1 construct: endogenous in cells; host or cells: U937 cells, induced with IFN-γ
Description: IDO1 activity in U937 cells, kynurenine formation after IFN-γ induction. The settings on record: IFN-γ induced, FIG. 2, read-out: IC50 for IDO inhibition in a cellular assay. It is filed as cell-based. On the procedure:
IDO1 activity in U937 cells was assessed by spectrophotometric measurement of kynurenine formation in the medium at least 24 hours post-induction with IFN-γ. Values are means of duplicate determinations ±SD.
The IDOL enzyme was first recognized as an antimicrobial. The approved topical formulant ethyl pyruvate (EP) can also blunt IDO levels and reverse immunosuppression in the setting of cancer to enable immune eradication. […] This is finding is not previously reported in the literature. The details of the assay protocol are published elsewhere.

The subject of another data set is Trichophyton rubrum. The settings on record: seven strains of Trichophyton rubrum; reported by others [28]; cited from earlier work.
The next data set concerns HIF1. Description: HIF1 stabilization in cells from B6 HIF-luciferase reporter mice, assayed ex vivo. It is filed as cell-based, mouse. As to the method:
Cells derived from B6 HIF-luciferase reporter mice were assayed ex vivo to detect the stabilization of HIF1 protein. Values are means of duplicate determinations ±SD. In the course of studies of inhibitors of proline hydroxylase-domain protein (PHD), an enzyme regulating cellular HIF1 levels, we observed that 10 μM ciclopirox enhanced the readout by 15-fold (screening data not shown). […] The details for the assay protocol are published elsewhere.
(In general: In a reporter assay the amount or activity of a reporter protein is the signal.)

T1 sequence (P14902 whole entry): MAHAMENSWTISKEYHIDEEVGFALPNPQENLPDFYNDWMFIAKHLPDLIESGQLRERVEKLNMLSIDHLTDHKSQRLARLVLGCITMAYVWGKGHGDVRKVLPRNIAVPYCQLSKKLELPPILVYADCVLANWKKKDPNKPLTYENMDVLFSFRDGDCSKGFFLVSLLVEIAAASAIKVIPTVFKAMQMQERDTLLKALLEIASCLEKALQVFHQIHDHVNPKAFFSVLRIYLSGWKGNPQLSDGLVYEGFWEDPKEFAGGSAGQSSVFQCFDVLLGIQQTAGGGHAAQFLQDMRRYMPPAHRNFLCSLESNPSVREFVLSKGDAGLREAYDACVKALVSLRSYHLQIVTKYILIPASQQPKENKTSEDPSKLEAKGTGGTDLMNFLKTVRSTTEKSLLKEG

On to `CCOC(=O)C(C)=O` [EP, ethyl pyruvate], for which the toxicity in humans result in data set [1] is reported as “No significant toxicities were reported”.

In the case of `C=C1CCN([C@H](C)[C@](O)(Cn2cncn2)c2ccc(F)cc2F)CC1` [Jublia, efinaconazole], the “efficacy for complete clinical cure” value in the data set with onychomycosis is listed as not above 18%.

For `OB1OCc2cc(F)ccc21` [Kerydin, tavarborole], the “efficacy for complete clinical cure” value with onychomycosis is reported as not above 10%.

As for `Cc1cc(C2CCCCC2)n(O)c(=O)c1` [ciclopirox, ciclopirox olamine], the half-maximal inhibitory concentration (IC50) on IDO1 is approximately 2 µM. Also, the “average MIC concentration” value with Trichophyton rubrum is ~16 μg/ml and ~77 μM. The “enhancement of HIF readout” value with HIF1 (10 μM ciclopirox, screening data not shown) worked out at 15 fold. Besides, the EC50 in the data set with HIF1 (Mus musculus, follow-up study, FIG. 1, read-out: apparent EC50 for HIF level stimulation) came out at 5 µM. Also, in the data set with HIF1 (follow-up study, FIG. 1), the “maximal stimulation of HIF levels over the solvent control” value was approximately 35 fold. Also, the “efficacy for complete clinical cure” value in the data set with onychomycosis was not above 12%.
